# Where a name gives a salt, the structure may show the parent alone. Read-outs that look alike come from different tables or passages of the source.
# How the values were obtained:
# hNav1.7 = hNav1.7 (Homo sapiens (Human), UniProt Q15858); assay: Tritiated sulfonamide competitive binding to membranes from cells expressing hNav1.7 and the β1 subunit;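 also: Filter-bound radioactivity counted by liquid scintillation, nonspecific binding defined with excess unlabelled ligand, IC50 fitted to percent inhibition of specific binding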
# Experimental: Tritiated Sulfonamide Binding to Membranes
# Preparation of membranes containing recombinantly expressed sodium channels: Frozen recombinant cell pellets were thawed on ice and diluted to 4 times the cell pellet weight with ice cold 50 mM TrisHCl, pH 7.4 buffer. The cell suspensions were homogenized on ice using a motorized glass douncehomogeniser. Homogenates were further diluted 8.4 times with ice cold 50 mM TrisHCl, pH 7.4 buffer and then centrifuged at 200×g at 4° C. for 15 min. The supersatants were collected and centrifuged at 10000×g at 4° C. for 50 min. The pellets were then re-suspended in 100 mMNaCl, 20 mM TrisHCl, pH. 7.4 buffer containing 1% v/v protease inhibitors (Calbiochem) and re-homogenized on ice. The homogenized membranes were then processed through a syringe equipped with a 26 gauge needle. Protein concentrations were determined by Bradford Assay and the membranes were stored at −80° C.
# Radioligand Binding Studies: Saturation experiments. A representative compound of formula (I) having a methyl group was tritiated. Three tritiums were incorporated in place of methyl hydrogens to generate [^3H]compound. Binding of this radioligand was preformed in 5 mL borosilicate glass test tubes at room temperature. Binding was initiated by adding membranes to increasing concentrations of [^3H]compound in 100 mM NaCl, 20 mM TrisHCl, pH 7.4 buffer containing 0.01% w/v bovine serum albumin (BSA) for 18 h. Non-specific binding was determined in the presence of 1 μM unlabelled compound. After 18 h, the reactants were filtered through GF/C glass fiber filters presoaked in 0.5% w/v polyethylene imine. Filters were washed with 15 mL ice cold 100 mM NaCl, 20 mM TrisHCl, pH7.4 buffer containing 0.25% BSA to separate bound from free ligand. [^3H]compound bound to filters was quantified by liquid scintillation counting.
# Competitive binding experiments: Binding reactions were preformed its 96-well polypropylene plates at room temperature for 18 h. In 360 μL, membranes were incubated with 100 pM [^3H]compound and increasing concentrations of Test Compound. Non-specific binding was defined in the presence of 1 μM unlabelled compound. Reactions were transferred and filtered through 96-well glass fiber/C filter plates presoaked with 0.5% polyethylene imine. The filtered reactions were washed 5 times with 200 μL ice cold butter containing 0.25% BSA. Bound radioactivity was determined by liquid scintillation counting.
# Data Analysis: For saturation experiments, non-specific binding was subtracted from total binding to provide specific binding and these values were recalculated in terms of pmol ligand bound per mg protein. Saturation curves were constructed and dissociation constants were calculated using the single site ligand binding model: Beq=(Bmax*X)/(X+KD), where Beq is the amount of ligand bound at equilibrium, Bmax is the maximum receptor density, Kd is the dissociation constant for the ligand, and X is the tree ligand concentration. For competition studies percent inhibition was determined and IC50 values were calculated using a 4 parameter logistic model (% inhibition=(A+((B−A)/(1+((x/C)^D)))) using XLfit, where A and B are the maximal and minimum inhibition respectively, C is the IC50 concentration and D is the (Hill) slope.
# NaV1.7 = NaV1.7 (Homo sapiens (Human), UniProt Q15858); assay: Patch voltage clamp electrophysiological assay (EP), NaV1.7; assay type: cell-based; conditions: HEK-293 cells stably expressing human NaV1.7 with β1 subunit, whole-cell patch clamp, holding −60 mV
# Experimental: Electrophysiological Assay (EP) (In vitro Assay)
# Control sodium currents were measured in 0.5% DMSO.
# Series resistance compensation was applied (60-80%).
# NaV1.5 = NaV1.5 (Homo sapiens (Human), UniProt Q14524); assay: Patch voltage clamp electrophysiological assay (EP), NaV1.5
# Experimental: The following patch voltage clamp electrophysiology studies were performed on representative compounds of the invention using human embryonic kidney cells (HEK), permanently transfected with an expression vector containing the full-length cDNA coding for the desired human sodium channel α-subunit, grown in culture media containing 10% FBS, 1% PSG, and 0.5 mg/mL G418 at 37° C. with 5% CO2. […] The β1 subunit was coexpressed in both the NaV1.7 and NaV1.5 cell lines.
# Sodium currents were measured rising the patch clamp technique in the whole-cell configuration using either a PatchXpress automated voltage clamp or manually using an Axopatch 200B (Axon Instruments) or Model 2400 (A-M systems) amplifier. […] The pipette was filled with a solution comprised of: 5 mM NaCl, 10 mM CsCl, 120 mM CsF, 0.1 mM CaCl2, 2 mM MgCl2, 10 mM HEPES, 10 mM EGTA; and adjusted to pH 7.2 with CsOH. The external solution had the following composition: 140 mM NaCl, 5 mM KCl, 2 mM CaCl2, 1 mM MgCl2, 10 mM HEPES; and adjusted to pH 7.4 with NaOH. In some studies, the external sodium was reduced by equimolar replacement with choline. Osmolality in the CsF internal and NaCl external solutions was adjusted to 300 mOsm/kg and 310 mOsm/kg with glucose, respectively. All recordings were performed at ambient temperature in a bath chamber with a volume of 150 μL. Control sodium currents were measured in 0.5% DMSO. Controls and representative compounds of the invention were applied to the recording chamber through a 4-pinch or 8-pinch valve bath perfusion system manufactured by ALA Scientific Instruments.
# Currents were recorded at 40 kHz sampling frequency, filtered at 5 Hz, and stored using a Digidata-1322A analogue/digital interface with the pClamp software (Axon instruments). Series resistance compensation was applied (60-80%). […] All statistics in this study are given as mean±SD.
# The membrane potential was maintained at a voltage where reactivation of the channel is complete (which was −60 mV for both NaV1.7 and NaV1.5). The voltage is then stepped back to a very negative (Vhold=150 mV) voltage for 20 ms and then a test poise is applied to quantify the compound block. The 20 ms brief repolarization was long enough for compound-free channels to completely recover from fast inactivation, but the compound-bound channels recovered more slowly such that negligible recovery could occur during this interval. The percent decrease in sodium current following wash-on of compound was taken as the percent block of sodium channels.
# [1] = read-out: Ligand Binding Assay, 100 pM [3H]compound, membranes with hNav1.7 and β1 subunit, 18 h, room temperature
# [2] = read-out: NaV1.5 EP, HEK-293 cells stably expressing human NaV1.5 with β1 subunit, whole-cell patch clamp, holding −60 mV
# hNav1.7, sequence (Q15858 other isoform, or with tags, fused parts or gaps): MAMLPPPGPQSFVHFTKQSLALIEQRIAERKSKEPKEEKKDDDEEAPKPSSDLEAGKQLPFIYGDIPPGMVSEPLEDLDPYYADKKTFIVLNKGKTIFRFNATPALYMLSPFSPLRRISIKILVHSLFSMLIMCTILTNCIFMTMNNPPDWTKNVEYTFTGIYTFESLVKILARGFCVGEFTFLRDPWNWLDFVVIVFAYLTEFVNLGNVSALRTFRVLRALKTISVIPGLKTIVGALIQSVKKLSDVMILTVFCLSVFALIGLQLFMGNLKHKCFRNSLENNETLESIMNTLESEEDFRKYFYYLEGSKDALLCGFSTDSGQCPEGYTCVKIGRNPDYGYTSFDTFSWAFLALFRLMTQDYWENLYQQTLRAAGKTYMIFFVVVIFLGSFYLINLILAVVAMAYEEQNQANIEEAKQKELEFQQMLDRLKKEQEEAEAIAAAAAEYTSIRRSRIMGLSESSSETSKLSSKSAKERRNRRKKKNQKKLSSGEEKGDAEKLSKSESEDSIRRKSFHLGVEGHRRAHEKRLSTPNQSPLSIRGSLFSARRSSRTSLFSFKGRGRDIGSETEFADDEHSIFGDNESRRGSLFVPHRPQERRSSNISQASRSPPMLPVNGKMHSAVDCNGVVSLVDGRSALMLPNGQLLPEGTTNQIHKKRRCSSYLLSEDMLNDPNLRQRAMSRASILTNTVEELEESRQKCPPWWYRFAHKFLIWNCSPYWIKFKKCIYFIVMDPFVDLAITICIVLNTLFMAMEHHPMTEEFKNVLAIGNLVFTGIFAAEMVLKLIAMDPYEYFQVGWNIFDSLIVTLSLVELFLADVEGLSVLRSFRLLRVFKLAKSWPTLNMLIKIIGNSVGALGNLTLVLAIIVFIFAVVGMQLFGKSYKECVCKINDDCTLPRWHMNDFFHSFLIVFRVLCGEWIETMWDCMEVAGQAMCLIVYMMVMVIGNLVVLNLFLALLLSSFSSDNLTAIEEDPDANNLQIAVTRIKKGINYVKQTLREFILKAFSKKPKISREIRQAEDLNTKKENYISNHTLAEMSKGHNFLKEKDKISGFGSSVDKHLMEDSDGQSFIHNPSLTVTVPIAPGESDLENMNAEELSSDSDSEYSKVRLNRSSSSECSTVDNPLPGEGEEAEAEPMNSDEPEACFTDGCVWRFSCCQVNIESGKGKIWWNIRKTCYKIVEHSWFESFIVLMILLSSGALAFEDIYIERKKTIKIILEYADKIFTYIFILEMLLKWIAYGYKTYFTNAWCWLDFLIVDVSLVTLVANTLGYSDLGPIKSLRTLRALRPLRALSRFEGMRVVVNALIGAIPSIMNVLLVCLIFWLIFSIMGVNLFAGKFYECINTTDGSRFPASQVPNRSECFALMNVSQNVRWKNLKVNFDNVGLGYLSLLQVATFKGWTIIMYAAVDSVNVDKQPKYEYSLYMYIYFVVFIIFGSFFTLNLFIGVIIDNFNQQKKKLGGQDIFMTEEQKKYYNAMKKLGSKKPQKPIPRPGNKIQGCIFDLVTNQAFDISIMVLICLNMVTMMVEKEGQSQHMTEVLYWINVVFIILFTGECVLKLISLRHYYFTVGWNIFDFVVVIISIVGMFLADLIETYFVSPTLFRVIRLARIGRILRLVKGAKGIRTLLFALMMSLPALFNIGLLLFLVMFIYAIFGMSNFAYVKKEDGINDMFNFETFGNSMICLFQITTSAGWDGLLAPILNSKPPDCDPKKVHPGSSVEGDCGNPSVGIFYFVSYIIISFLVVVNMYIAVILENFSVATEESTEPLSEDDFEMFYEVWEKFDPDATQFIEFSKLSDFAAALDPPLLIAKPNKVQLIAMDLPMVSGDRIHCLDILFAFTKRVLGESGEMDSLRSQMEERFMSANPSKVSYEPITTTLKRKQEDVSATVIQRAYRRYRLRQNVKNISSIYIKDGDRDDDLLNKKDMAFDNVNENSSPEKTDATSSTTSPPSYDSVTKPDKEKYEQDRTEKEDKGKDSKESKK
# hNav1.7, sequence (Q07699 19-218 partner): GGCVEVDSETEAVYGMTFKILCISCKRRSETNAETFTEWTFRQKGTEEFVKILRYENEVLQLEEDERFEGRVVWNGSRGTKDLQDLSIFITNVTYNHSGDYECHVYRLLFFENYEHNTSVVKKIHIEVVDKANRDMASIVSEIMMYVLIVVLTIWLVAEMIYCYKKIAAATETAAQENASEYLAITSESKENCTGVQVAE
# NaV1.7, sequence (Q15858 other isoform, or with tags, fused parts or gaps): as the sequence (Q15858 other isoform, or with tags, fused parts or gaps) above
# NaV1.7, sequence (Q07699 19-218 partner): as the sequence (Q07699 19-218 partner) above
# NaV1.5, sequence (Q14524 whole entry): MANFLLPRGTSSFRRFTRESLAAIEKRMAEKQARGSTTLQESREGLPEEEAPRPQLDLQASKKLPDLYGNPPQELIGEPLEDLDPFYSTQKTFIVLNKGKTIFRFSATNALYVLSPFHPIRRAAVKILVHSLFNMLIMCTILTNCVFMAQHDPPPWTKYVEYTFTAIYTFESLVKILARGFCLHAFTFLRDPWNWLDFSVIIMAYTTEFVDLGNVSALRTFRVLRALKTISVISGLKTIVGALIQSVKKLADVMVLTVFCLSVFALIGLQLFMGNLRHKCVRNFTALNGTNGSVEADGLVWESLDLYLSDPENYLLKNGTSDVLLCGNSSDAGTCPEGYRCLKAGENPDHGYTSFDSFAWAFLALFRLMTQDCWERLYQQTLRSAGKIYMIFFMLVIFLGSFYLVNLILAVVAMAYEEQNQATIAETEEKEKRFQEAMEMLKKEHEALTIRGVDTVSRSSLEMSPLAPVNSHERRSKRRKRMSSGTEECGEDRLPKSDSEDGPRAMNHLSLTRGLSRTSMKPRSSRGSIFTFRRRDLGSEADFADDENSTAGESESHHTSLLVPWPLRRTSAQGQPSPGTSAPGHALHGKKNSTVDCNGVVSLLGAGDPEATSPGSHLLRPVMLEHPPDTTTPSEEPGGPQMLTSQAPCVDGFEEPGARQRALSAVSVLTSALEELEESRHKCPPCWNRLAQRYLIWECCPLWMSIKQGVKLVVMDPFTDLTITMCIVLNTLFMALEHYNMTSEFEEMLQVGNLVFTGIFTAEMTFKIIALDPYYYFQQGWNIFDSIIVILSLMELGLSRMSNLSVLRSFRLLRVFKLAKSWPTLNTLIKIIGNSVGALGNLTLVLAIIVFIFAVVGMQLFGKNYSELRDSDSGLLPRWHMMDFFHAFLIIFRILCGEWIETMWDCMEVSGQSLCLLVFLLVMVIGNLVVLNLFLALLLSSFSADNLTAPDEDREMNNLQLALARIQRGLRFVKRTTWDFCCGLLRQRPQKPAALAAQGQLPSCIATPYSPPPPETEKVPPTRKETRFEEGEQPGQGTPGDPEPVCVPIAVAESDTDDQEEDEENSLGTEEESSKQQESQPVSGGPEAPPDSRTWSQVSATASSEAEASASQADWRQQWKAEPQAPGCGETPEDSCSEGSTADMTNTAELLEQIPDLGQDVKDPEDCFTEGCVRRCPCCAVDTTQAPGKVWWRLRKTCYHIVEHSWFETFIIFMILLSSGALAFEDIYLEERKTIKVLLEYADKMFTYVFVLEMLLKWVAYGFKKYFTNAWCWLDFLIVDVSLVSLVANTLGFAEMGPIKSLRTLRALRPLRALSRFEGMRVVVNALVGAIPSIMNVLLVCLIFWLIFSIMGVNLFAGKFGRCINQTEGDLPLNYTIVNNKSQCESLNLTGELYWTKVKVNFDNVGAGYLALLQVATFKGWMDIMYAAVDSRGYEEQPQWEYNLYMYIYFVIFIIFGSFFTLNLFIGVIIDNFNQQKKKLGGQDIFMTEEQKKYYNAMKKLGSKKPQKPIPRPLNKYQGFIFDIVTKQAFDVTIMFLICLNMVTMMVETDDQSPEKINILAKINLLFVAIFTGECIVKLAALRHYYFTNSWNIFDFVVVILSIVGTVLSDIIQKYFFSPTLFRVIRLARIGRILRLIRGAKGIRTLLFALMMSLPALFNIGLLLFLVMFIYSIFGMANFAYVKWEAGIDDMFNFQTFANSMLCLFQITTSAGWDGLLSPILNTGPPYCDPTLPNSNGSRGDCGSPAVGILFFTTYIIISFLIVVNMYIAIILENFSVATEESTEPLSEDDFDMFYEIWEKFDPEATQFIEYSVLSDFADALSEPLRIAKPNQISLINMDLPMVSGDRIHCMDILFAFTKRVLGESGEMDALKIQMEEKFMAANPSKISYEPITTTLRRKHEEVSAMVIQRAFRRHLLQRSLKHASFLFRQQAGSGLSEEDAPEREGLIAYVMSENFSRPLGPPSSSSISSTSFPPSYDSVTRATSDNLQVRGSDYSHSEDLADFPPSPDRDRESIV
Compound,IC50 (hNav1.7; [1]) [nM],IC50 (NaV1.7) [nM],also measured
"COc1ccc(CN2CCC[C@@H](Oc3cc(F)c(C(=O)NS(C)(=O)=O)cc3C3CC3)C2)c(C)c1 [Example 434, trifluoroacetic acid salt]",5,12.8,–
"O=C(NS(=O)(=O)N1CCC1)c1cc(C2CC2)c(O[C@H]2CCCN(Cc3ccccc3)C2)cc1F [Example 2, (S)—N-(azetidin-1-ylsulfonyl)-4-((1-benzylpiperidin-3-yl)oxy)-5-cyclopropyl-2-fluorobenzamide]",4120,1080,–
CC(C)(c1cc(Cl)cc(Cl)c1)N1CCC(COc2cc(F)c(C(=O)NS(C)(=O)=O)cc2C2CC2)CC1 [Example 209],1.7,15.8,–
"O=C(NS(=O)(=O)C1CC1)c1cc(C2CC2)c(O[C@@H]2CCCN(Cc3cccc(Cl)c3)C2)cc1F [Example 27, (R)-4-((1-(3-chlorobenzyl)piperidin-3-yl)oxy)-5-cyclopropyl-N-(cyclopropylsulfonyl)-2-fluorobenzamide]",–,–,IC50 (hNav1.7): 3.6 nM; IC50 (NaV1.5): 169 nM
"O=C(NS(=O)(=O)C1CC1)c1cc(C2CC2)c(CN2[C@@H]3CC[C@H]2C[C@@H](Oc2cc(Cl)cc(Cl)c2)C3)cc1F [Example 475, 5-cyclopropyl-N-(cyclopropylsulfonyl)-4-(((1R,3r,5S)-3-(3,5-dichlorophenoxy)-8-azabicyclo[3.2.1]octan-8-yl)methyl)-2-fluorobenzamide hydrochloride]",–,–,IC50 (NaV1.5): 814 nM
"CS(=O)(=O)NC(=O)c1cc(C2CC2)c(OC[C@H]2CCCN(Cc3ccc(F)cc3Cl)C2)cc1F [Example 335, (S)-4-((1-(2-chloro-4-fluorobenzyl)piperidin-3-yl)methoxy)-5-cyclopropyl-2-fluoro-N-(methylsulfonyl)benzamide]",14.3,–,–
"O=C(NS(=O)(=O)C1CC1)c1cc(C2CC2)c(O[C@@H]2CCCN(c3ccc(C(F)(F)F)cn3)C2)cc1F [Example 491, (R)-5-cyclopropyl-N-(cyclopropylsulfonyl)-2-fluoro-4-((1-(5-(trifluoromethyl)pyridin-2-yl)piperidin-3-yl)oxy)benzamide, trifluoroacetic acid salt]",28.3,–,–
"CS(=O)(=O)NC(=O)c1cc(C2CC2)c(CN2CCC(OCc3cc(Cl)cc(Cl)c3)CC2)cc1F [Example 511, 5-cyclopropyl-4-((4-((3,5-dichlorobenzyl)oxy)piperidin-1-yl)methyl)-2-fluoro-N-(methylsulfonyl)benzamide, trifluoroacetic acid salt]",–,–,IC50 (hNav1.7): 23.5 nM
"O=C(NS(=O)(=O)N1CCC1)c1cc(C2CC2)c(O[C@@H]2CCCN(c3ccc(F)cc3)C2)cc1F [Example 37, (R)—N-(azetidin-1-ylsulfonyl)-5-cyclopropyl-2-fluoro-4-((1-(4-fluorophenyl)piperidin-3-yl)oxy)benzamide, trifluoroacetic acid salt]",–,–,IC50 (hNav1.7): 15.1 nM
"CS(=O)(=O)NC(=O)c1cc(C2CC2)c(O[C@@H]2CCCN([C@H](c3ccc(F)cc3Cl)C(F)(F)F)C2)cc1F (single isomer, unassigned) [Example 297]",10.8,–,–
C[C@@H]1CC[C@@H](Oc2cc(F)c(C(=O)NS(C)(=O)=O)cc2C2CC2)CN1Cc1ccc(F)cc1Cl [Example 52],< 1.6,–,–
"C[C@@H]1CC[C@@H](Oc2cc(F)c(C(=O)NS(=O)(=O)C3CC3)cc2C2CC2)CN1Cc1ccc(F)cc1Cl [Example 323, 4-(((3R,6R)-1-(2-chloro-4-fluorobenzyl)-6-methylpiperidin-3-yl)oxy)-5-cyclopropyl-N-(cyclopropylsulfonyl)-2-fluorobenzamide]",1.9,–,–
"O=C(NS(=O)(=O)N1CCC1)c1cc(C2CC2)c(CN2CCO[C@H](Cc3cc(Cl)cc(Cl)c3)C2)cc1F [Example 465, (R)—N-(azetidin-1-ylsulfonyl)-5-cyclopropyl-4-((2-(3,5-dichlorobenzyl)morpholino)methyl)-2-fluorobenzamide, trifluoroacetic acid salt]",12.8,–,–
"CC1(COc2cc(F)c(C(=O)NS(C)(=O)=O)cc2C2CC2)CCN(C(=O)c2cc(Cl)c(Cl)cc2F)CC1 [Example 577, 5-cyclopropyl-4-((1-(4,5-dichloro-2-fluorobenzoyl)-4-methylpiperidin-4-yl)methoxy)-2-fluoro-N-(methylsulfonyl)benzamide]",40,–,–
"CS(=O)(=O)NC(=O)c1cc(C2CC2)c(OCC2CCN(Cc3ccc(F)c(C#N)c3)CC2)cc1F [Example 591, 4-((1-(3-cyano-4-fluorobenzyl)piperidin-4-yl)methoxy)-5-cyclopropyl-2-fluoro-N-(methylsulfonyl)benzamide]",–,–,IC50 (hNav1.7): 240 nM
"C[C@H](c1ccc(Cl)c(Cl)c1)N1CCC(C)(COc2cc(F)c(C(=O)NS(C)(=O)=O)cc2C2CC2)CC1 (single isomer, unassigned) [Example 218]",7.8,–,–
"C[Si](C)(C)CCS(=O)(=O)NC(=O)c1cc(C2CC2)c(OCC2CN(C(c3ccccc3)c3ccccc3)C2)cc1F [Example 60, 4-((1-benzhydrylazetidin-3-yl)methoxy)-5-cyclopropyl-2-fluoro-N-((2-(trimethylsilyl)ethyl)sulfonyl)benzamide]",1600,–,–
"Cc1ccc(CN2CCC[C@@H](Oc3cc(F)c(C(=O)NS(C)(=O)=O)cc3C3CC3)C2)c(Cl)c1 [Example 424, (R)-4-((1-(2-chloro-4-methylbenzyl)piperidin-3-yl)oxy)-5-cyclopropyl-2-fluoro-N-(methylsulfonyl)benzamide, trifluoroacetic acid salt]",2.5,–,–

# The next lines start with results.
IC50 (hNav1.7; [1]) [nM],IC50 (NaV1.7) [nM],Compound,also measured
2.2,23,"O=C(NS(=O)(=O)C1CC1)c1cc(C2CC2)c(OCC2CCN(Cc3cc(Cl)cc(Cl)c3)CC2)cc1F [Example 259, 5-Cyclopropyl-N-(cyclopropylsulfonyl)-4-((1-(3,5-dichlorobenzyl)piperidin-4-yl)methoxy)-2-fluorobenzamide]",IC50 (NaV1.5; [2]): 110 nM
6.3,3,"CCS(=O)(=O)NC(=O)c1cc(C2CC2)c(OCC2CCN([C@H](COC)c3cc(Cl)cc(Cl)c3)CC2)cc1F (single isomer, unassigned) [Example 169]",IC50 (NaV1.5; [2]): 280 nM
3.9,2.8,"COC[C@@H](c1cc(Cl)cc(Cl)c1)N1CCC(COc2cc(F)c(C(=O)NS(C)(=O)=O)cc2C2CC2)CC1 (single isomer, unassigned) [Example 162]",–
–,4.2,"COC[C@H](c1cc(Cl)cc(Cl)c1)N1CCC(COc2cc(F)c(C(=O)NS(=O)(=O)N3CCC3)cc2C2CC2)CC1 (single isomer, unassigned) [Example 167]",–
4.3,3.3,"COC[C@@H](c1cc(Cl)cc(Cl)c1)N1CCC(COc2cc(F)c(C(=O)NS(=O)(=O)C3CC3)cc2C2CC2)CC1 (single isomer, unassigned) [Example 164]",–
–,2.5,"CC(C)Oc1ncc(CN2CCC(COc3cc(F)c(C(=O)NS(C)(=O)=O)cc3C3CC3)CC2)cc1Cl [Example 217, 4-((1-((5-Chloro-6-isopropoxypyridin-3-yl)methyl)piperidin-4-yl)methoxy)-5-cyclopropyl-2-fluoro-N-(methylsulfonyl)benzamide]",IC50 (NaV1.5; [2]): 190 nM
6,2.8,"CS(=O)(=O)NC(=O)c1cc(C2CC2)c(OCC2CCN(Cc3cc(F)cc(Cl)c3)CC2)cc1F [Example 268, 4-((1-(3-Chloro-5-fluorobenzyl)piperidin-4-yl)methoxy)-5-cyclopropyl-2-fluoro-N-(methylsulfonyl)benzamide]",–
290,–,"O=C(NS(=O)(=O)C1CC1)c1cc(C2CC2)c(OCC2CCN(C(=O)c3ccccc3C(F)(F)F)CC2)cc1F [Example 256, 5-Cyclopropyl-N-(cyclopropylsulfonyl)-2-fluoro-4-((1-(2-(trifluoromethyl)benzoyl)piperidin-4-yl)methoxy)benzamide]",–
2.7,–,"C[C@H](c1cc(Cl)cc(Cl)c1)N1CCC(C)(COc2cc(F)c(C(=O)NS(C)(=O)=O)cc2C2CC2)CC1 (single isomer, unassigned) [Example 212]",–
20.3,–,"O=C(NS(=O)(=O)C1CC1)c1cc(C2CC2)c(OCC2CCN(S(=O)(=O)c3ccccc3C(F)(F)F)CC2)cc1F [Example 371, 5-cyclopropyl-N-(cyclopropylsulfonyl)-2-fluoro-4-((1-((2-(trifluoromethyl)phenyl)sulfonyl)piperidin-4-yl)methoxy)benzamide]",–
6.03,–,"CS(=O)(=O)NC(=O)c1cc(C2CC2)c(OCC2CCN(Cc3ccc(Cl)c(Cl)c3)CC2)cc1F [Example 147, 5-Cyclopropyl-4-((1-(3,4-dichlorobenzyl)piperidin-4-yl)methoxy)-2-fluoro-N-(methylsulfonyl)benzamide]",–
20,–,"CS(=O)(=O)NC(=O)c1cc(C2CC2)c(OCC2CCN(C(=O)c3cc(Cl)cc(Cl)c3)CC2)cc1F [Example 253, 5-Cyclopropyl-4-((1-(3,5-dichlorobenzoyl)piperidin-4-yl)methoxy)-2-fluoro-N-(methylsulfonyl)benzamide]",–
8.3,–,"CCS(=O)(=O)NC(=O)c1cc(C2CC2)c(OCC2CCN(C3(c4cc(Cl)cc(Cl)c4)COC3)CC2)cc1F [Example 177, 5-Cyclopropyl-4-((1-(3-(3,5-dichlorophenyl)oxetan-3-yl)piperidin-4-yl)methoxy)-N-(ethylsulfonyl)-2-fluorobenzamide]",–
5.2,–,"CS(=O)(=O)NC(=O)c1cc(C2CC2)c(OCC2CCN(c3ccccc3Cl)CC2)cc1F [Example 293, 4-((1-(2-Chlorophenyl)piperidin-4-yl)methoxy)-5-cyclopropyl-2-fluoro-N-(methylsulfonyl)benzamide]",–
2.69,–,"CC(c1cc(Cl)cc(Cl)c1)N1CCC(COc2cc(F)c(C(=O)NS(C)(=O)=O)cc2C2CC2)CC1 (stereo not drawn) [Example 97, 5-Cyclopropyl-4-((1-(1-(3,5-dichlorophenyl)ethyl)piperidin-4-yl)methoxy)-2-fluoro-N-(methylsulfonyl)benzamide]",–
